Reference: PubChem BioAssay AID2765 (Broad Institute, 2010)
Active and inactive are the calls of the source.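 The calls were made as follows: active = half-maximal concentration for the rise in caspase light signal at or below ten times the top tested dose; inconclusive = flat fit between 30% and 70% activity, or unreliable curve fit; inactive = the rest.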

System: MEF A1-2A-BIM cells, caspase 3/7 luminescence, 3 h
Assay: inducers of caspase signal in A1-dependent MEFs – cell-based, luminescence, retest, A1 inhibitor project, dose response (AID 2765)

Compound | EC50
COC(=O)c1ccc(NC(=O)CCN2CCN(c3ccccc3)CC2)cc1 | > 35 µM (inactive)
Cc1ccsc1CNC1CCCCC1 | > 35 µM (inactive)
CSc1ccccc1NC(=O)c1ccc(N2CC3CC(C2)c2cccc(=O)n2C3)c(NC(=O)c2cccnc2)c1 (stereo not given) | > 35 µM (inactive)
CCOC(=O)c1cc(CC)sc1NC(=O)C1CC(=O)NN1Cc1ccccc1 (stereo not given) | > 35 µM (inactive)
O=C1C(Cc2ccccc2)SC(=Nc2ccccc2)N1c1ccccc1 (stereo not given) | > 35 µM (inactive)
COc1ccc(NC(=O)C(=O)N/N=C\c2ccc(CNC(=O)C(=O)Nc3ccc(C)c(C)c3)o2)c(OC)c1 | 14.3 µM
O=c1c(Cl)c(Cl)cnn1Cc1ccccc1Cl | > 35 µM (inactive)
CC(NC(=O)c1cc(F)c(F)c(F)c1F)c1ccc(-n2ccnc2)cc1 (stereo not given) | > 35 µM (inactive)
Cc1cc(=O)oc2c(C)c(OCC(=O)N3CCN(C(=O)C4COc5ccccc5O4)CC3)ccc12 (stereo not given) | > 35 µM (inactive)
CCCCCC(=O)N1CCCC1 | > 35 µM (inactive)
C=CCOc1c(Br)cc(CNc2ccc3[nH]c(=O)[nH]c3c2)cc1OCC | > 35 µM (inactive)
Cc1[nH]n(-c2cccc(Cl)c2)c(=O)c1C=NC12CN3CN(CN(C3)C1)C2 | > 35 µM (inactive)
CCN(CC)C(=S)SCC(=O)Nc1ccc(F)cc1 | > 35 µM (inactive)
COc1cc(OC)cc(C(=O)Nc2ccc(S(=O)(=O)N3CCOCC3)cc2)c1 | > 35 µM (inactive)
Cc1ccc(Cl)cc1NC(=O)CC1NC2CCCCC2NC1=O (stereo not given) | > 35 µM (inactive)
CCCC(=O)Nc1ncnc2c1ncn2[C@@H]1O[C@@H]2OP(=O)(O)OC[C@H]2[C@H]1OC(=O)CCC | > 35 µM (inactive)
Cc1ccc(NC(=O)c2cccc(S(=O)(=O)NCc3ccccc3)c2)nc1 | > 35 µM (inactive)
CCCc1cc(=O)oc2cc(C)cc(OCC(=O)Nc3ccc(S(N)(=O)=O)cc3)c12 | > 35 µM (inactive)
CCOC(=O)c1c(C)[nH]c(C)c1C(=O)CSc1nc2ccccc2n1CCOC | > 35 µM (inactive)
Clc1ccc(C2=CC(c3ccco3)n3ncnc3N2)cc1 (stereo not given) | > 35 µM (inactive)
Nc1nonc1-n1nnc(C(=O)N/N=C/c2ccc(Br)cc2)c1CN1CCOCC1 | > 35 µM (inactive)
CC(C)C(=O)n1nc(-c2cccnc2)nc1NCc1ccc(F)cc1 | > 35 µM (inactive)
COC(=O)c1ccc2c(c1)C(C)(C)C(/C=C/c1ccc(O)cc1)=[N+]2C | 15.2 µM

Compound | EC50
CCS(=O)(=O)Nc1ccc(Cc2ccncc2)cc1 | > 35 µM (inactive)
COc1ccc2cc(C)c3nnc(SCC(=O)Nc4nc(-c5ccc(F)cc5)cs4)n3c2c1 | 9.65 µM
CCOc1ccccc1NC(=O)CN1C(=O)CSC(C)C1=O (stereo not given) | > 35 µM (inactive)
COc1ccc2[nH]c3c(=O)n(/N=C/[C@H]4C(C)C=C(C)CC4C)c(=O)[nH]c3c2c1 (stereo not given in full) | 16 µM
CCOC(=O)C[C@H]1c2ccccc2S(=O)(=O)N1Cc1cccc(C(F)(F)F)c1 | > 35 µM (inactive)
CC(C)c1cccc(-c2ccc3c(c2)S(=O)(=O)c2cccc(C(=O)NC4CCCC4)c2C3=O)c1 | > 35 µM (inactive)
CCOC(=O)CNC(=O)N1CCCC(CNS(=O)(=O)Cc2ccccc2)C1 (stereo not given) | > 35 µM (inactive)
COc1ccccc1CCNC(C)CCc1ccc(O)cc1 (stereo not given) | > 35 µM (inactive)
CCCCN1C(=O)C(NC(C)=O)c2cc(Br)ccc21 (stereo not given) | > 35 µM (inactive)
Cc1ccc(NC(=O)c2ccc(Cl)c(N3C(=O)C=CC3=O)c2)cc1 | > 35 µM (inactive)
C=C1/C=C(\C)[C@](C)(O)C[C@H](O)CC(=O)[C@H](O)[C@@H](O)[C@H](C)C[C@H](C)OC(=O)/C(C)=C/CC/C=C/[C@@H]2O[C@H]2C[C@H](C)C1 | > 35 µM (inactive)
Cc1cccc(C)c1NC(=O)c1cnccn1 | > 35 µM (inactive)
Cc1ccc(NC(=O)c2cc(N3C(=O)C=CC3=O)ccc2N2CCOCC2)cc1Cl | > 35 µM (inactive)
CC1CC(C)CN(C(=O)CCCn2c(=S)[nH]c3ccccc3c2=O)C1 (stereo not given) | > 35 µM (inactive)
COc1ccc(N2CC(C(=O)N[C@H](C(=O)NC(C)c3ccccc3)C(C)C)CC2=O)cc1 (stereo not given in full) | > 35 µM (inactive)
COc1ccc2sc(N(CCCN(C)C)C(=O)c3ccc(S(=O)(=O)N4CCc5ccccc5C4)cc3)nc2c1 | 29.5 µM
CCOC(=O)CCCCCNC(=O)c1ccc(F)cc1F | > 35 µM (inactive)
CN(C)C(=O)[C@@H]1C[C@H]1[C@@H](NC(=O)OCc1ccccc1)c1ccccc1 | > 35 µM (inactive)
COc1ccccc1N1CCN(C(=O)c2ccc(C(C)(C)C)cc2)CC1 | > 35 µM (inactive)
Cc1cc(=O)oc2cc(OCCC[n+]3ccccc3)ccc12 | > 35 µM (inactive)
Cc1ccc(C(=O)Nc2nnc(C3=COCCO3)o2)cc1C | > 35 µM (inactive)
O=C(Nc1ccc(-c2nc3cc(NC(=O)c4cccs4)ccc3o2)cc1)c1cccs1 | > 35 µM (inactive)
C=C1C(=O)O[C@H]2C[C@@H](C)[C@@H]3C=CC(=O)[C@@]3(C)C[C@H]12 | > 35 µM (inactive)

Compound | EC50
C=CC[N+]1(CC=C)CCOCC1 | > 35 µM (inactive)
COc1cc2sc3ccc(C#Cc4ccc(N)cc4)cc3c(=O)c2cc1OC | > 35 µM (inactive)
CN(C)CCN(C(=O)/C=C/c1cccs1)c1nc2c(F)cc(F)cc2s1 | 36.1 µM
CCOC(=O)CSC1=N/C(=C/c2ccc(-n3cncn3)cc2)C(=O)N1C(C)=O | 25.6 µM
COc1cc(SC#N)ccc1N=Cc1c(C)[nH]n(-c2ccc(C)cc2)c1=O | > 35 µM (inactive)
CCN(C(=O)c1ccc2c(=O)n3c(nc2c1)CCCCC3)c1ccccc1C | > 35 µM (inactive)
Cc1cc(C)n(CCC(=O)N/N=C/c2ccc(Cl)c([N+](=O)[O-])c2)n1 | > 35 µM (inactive)
Cc1ccc(-n2nc3c(=O)n(CC(=O)NCCC4=CCCCC4)nc(C)c3c2C)cc1 | > 35 µM (inactive)
CCCn1cc(S(=O)(=O)c2ccc(C)cc2)c(=O)c2cc(OC)c(OC)cc21 | > 35 µM (inactive)
COc1cc(S(=O)(=O)Nc2ccncc2)ccc1F | > 35 µM (inactive)
O=C(NCCc1ccccc1)C(c1cccs1)N(C(=O)CCl)c1ccc(Cl)cc1 (stereo not given) | 7.95 µM
O=C(CSc1nccc(=O)[nH]1)Nc1ccccc1Sc1ccccc1 | > 35 µM (inactive)
Cc1cc(C)cc(COn2ccnc2)c1 | > 35 µM (inactive)
COc1ccccc1-c1cc(C(F)(F)F)nc(S(=O)(=O)CCCC(=O)N2CCOCC2)n1 | 28.7 µM
COc1ccc(C(=O)NNC(=O)CSc2nc3c(c(=O)n(C)c(=O)n3C)n2C)cc1 | > 35 µM (inactive)
O=C(Cc1cn2ccsc2n1)Nc1cccc2cnccc12 | > 35 µM (inactive)
O=C(NCCc1ccccc1)C1CCCN1C(=O)Nc1ccc(F)cc1 (stereo not given) | > 35 µM (inactive)
Cc1ccc(CS(=O)(=O)c2ncc(Cl)c(C(=O)Nc3ccc(OC(F)F)cc3)n2)cc1 | > 35 µM (inactive)
CC1CCN(c2ccc3nnc(CCC(=O)NCc4ccco4)n3n2)CC1 | > 35 µM (inactive)
CN(c1ccccc1)c1ccc(/C=C/[N+](=O)[O-])cc1 | 12.6 µM
COc1ccc(NC(=O)CSc2nc3ccc(Nc4nc(N5CCOCC5)nc(N5CCOCC5)n4)cc3s2)cc1 | > 35 µM (inactive)
CC12CCCCC1NS(=O)(=O)OC2 (stereo not given) | > 35 µM (inactive)
NC(N)=N/N=C/c1cccc([N+](=O)[O-])c1O | > 35 µM (inactive)

Compound | EC50
O=C(CCS(=O)(=O)c1ccccc1)N(CCCN1CCOCC1)c1nc2ccc(F)cc2s1 | > 35 µM (inactive)
CN1CCN(c2nccc3c2ncn3C)CC1 | > 35 µM (inactive)
O=C(Nc1ccc(Br)cn1)c1cccc2c1-c1ccccc1C2=O | > 35 µM (inactive)
O=C(N/N=C\c1ccc(CN(Cc2ccc(Cl)cc2)S(=O)(=O)c2ccccc2)o1)C(=O)Nc1ccc(F)cc1 | > 35 µM (inactive)
COC(=O)CN(c1ccc(OC)c(OC)c1)S(C)(=O)=O | > 35 µM (inactive)
COC(=O)c1ccc(C(=O)OC)c(NC(=O)CSc2ccccn2)c1 | > 35 µM (inactive)
COc1ccc(NC(=O)CN(C)C(=O)/C=C/c2ccc(S(=O)(=O)N3CCCCCC3)cc2)cc1 | > 35 µM (inactive)
CN(C)C(=O)c1ccc(OCC(F)(F)F)nc1 | > 35 µM (inactive)
CC1Cc2cc(/C(O)=C3/C(=O)C(=O)N(Cc4cccnc4)C3c3cccc(O)c3)ccc2O1 (stereo not given) | > 35 µM (inactive)
O=C(C1=C[C@H](c2coc3ccccc3c2=O)C[C@H](OCc2ccc(CO)cc2)O1)N1CCN(Cc2ccccc2)CC1 | > 35 µM (inactive)
C=C(C(=O)Oc1ccccc1C(C)(C)C)c1ccccc1 | 15.9 µM
CC(=O)OCCn1c2nc(=O)[nH]c(=O)c-2nc2cc(C)c(C)cc21 | > 35 µM (inactive)
CN(CC(=O)Nc1cccc2ccccc12)C(=O)c1ccc(NC(=O)CC#N)cc1 | > 35 µM (inactive)
CN1CCN(CCNC(=O)Nc2ccc(Cl)cc2)CC1 | > 35 µM (inactive)
CC(C(=O)N(C)c1ccccc1)N1CCN(C(=O)c2ccccc2)CC1 (stereo not given) | > 35 µM (inactive)
CCc1noc(C)c1C(=O)N(CC)CC(=O)NCc1ccc(Cl)cc1 | > 35 µM (inactive)
COc1ccc(CC(=O)Nc2ccc3c(c2)CCC3)cc1S(=O)(=O)N1CCOCC1 | > 35 µM (inactive)
CN(C(=O)CSc1nnc(C(F)(F)F)n1N)C1CCS(=O)(=O)C1 (stereo not given) | > 35 µM (inactive)
O=C(O)/C=C/C(=O)Nc1ccc(OC(F)F)cc1 | > 35 µM (inactive)
CCOc1cccc(C2C(C(=O)c3ccc(C)o3)=C(O)C(=O)N2Cc2ccncc2)c1 (stereo not given) | > 35 µM (inactive)
COc1ccc(C2CC(c3c(O)cc(C)oc3=O)=NCCS2)c(OC)c1 (stereo not given) | > 35 µM (inactive)
